biological target: Phi29-type DNA polymerase (Bacillus phage phi29, UniProt P03680); experiment: Dissociation constants of nucleotides with polymerase by fluorescence assays; assay type: binding; details: fluorescence assays; natural and unincorporable nucleotides
From the text: Disclosed herein is a determination of a number of enzymatic parameters including substrate binding and dissociation constants (examples in Table 1) under a variety of conditions and with a variety of nucleotide analogs (NTPs, N6Ps, tagged N6Ps, α-thio and α,β-methylene nucleotide polyphosphates). In addition to these compounds, disclosed herein are fluorescent nucleotide analogs and unincorporable (α-thio) nucleotides that were designed and synthesized for the polymerase tests to develop new Nanopore-SBS approaches as described below.

Phi29-type DNA polymerase, sequence (P03680 whole entry): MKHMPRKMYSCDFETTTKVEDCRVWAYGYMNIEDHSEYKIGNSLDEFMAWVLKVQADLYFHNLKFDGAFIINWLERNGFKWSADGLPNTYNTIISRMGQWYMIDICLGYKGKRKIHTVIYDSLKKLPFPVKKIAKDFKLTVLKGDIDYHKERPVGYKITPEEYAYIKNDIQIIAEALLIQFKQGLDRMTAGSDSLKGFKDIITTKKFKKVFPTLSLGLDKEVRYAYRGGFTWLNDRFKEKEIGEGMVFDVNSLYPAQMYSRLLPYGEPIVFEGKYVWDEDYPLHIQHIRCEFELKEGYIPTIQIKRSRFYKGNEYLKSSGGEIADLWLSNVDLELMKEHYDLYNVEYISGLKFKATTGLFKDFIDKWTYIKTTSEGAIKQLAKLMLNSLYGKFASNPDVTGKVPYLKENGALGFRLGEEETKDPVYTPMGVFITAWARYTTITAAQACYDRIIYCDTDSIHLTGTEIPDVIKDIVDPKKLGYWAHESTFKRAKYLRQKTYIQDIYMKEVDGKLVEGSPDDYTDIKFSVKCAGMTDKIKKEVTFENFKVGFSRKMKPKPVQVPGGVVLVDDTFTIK

Row | Compound | Kd [nM]
1 | Nc1ccn(C2CC(O)C(COP(=O)(O)CP(=O)(O)OP(=O)(O)O)O2)c(=O)n1 (stereo not drawn) [dCp-CH2-pp, reference compound] | 25000
2 | Nc1ccn(C2CC(O)C(COP(=O)(O)OP(=O)(O)OP(=O)(O)O)O2)c(=O)n1 (stereo not drawn) [dCTP, reference compound] | ~5
3 | Nc1nc2c(ncn2C2CC(O)C(COP(O)(=S)OP(=O)(O)OP(=O)(O)O)O2)c(=O)[nH]1 (stereo not drawn) [2′-dGTP-αS (Sp-isomer), 2′-dGTP-αS] | 6
4 | Nc1nc2c(ncn2C2CC(O)C(COP(=O)(O)OP(=O)(O)OP(=O)(O)O)O2)c(=O)[nH]1 (stereo not drawn) [dGTP, reference compound] | 6
5 | Nc1nc2c(ncn2C2CC(O)C(COP(O)(=S)OP(=O)(O)OP(=O)(O)O)O2)c(=O)[nH]1 (stereo not drawn) [2′-dGTP-αS (Rp-isomer), 2′-dGTP-αS] | 910
6 | Nc1ccn(C2CC(O)C(COP(O)(=S)OP(=O)(O)OP(=O)(O)O)O2)c(=O)n1 (stereo not drawn) [2′-dCTP-αS (Rp-isomer), 2′-dCTP-αS] | 750
7 | Nc1ccn(C2CC(O)C(COP(O)(=S)OP(=O)(O)OP(=O)(O)O)O2)c(=O)n1 (stereo not drawn) [2′-dCTP-αS (Sp-isomer), 2′-dCTP-αS] | 1

same assay, conditions: fluorescence assays; natural and unincorporable nucleotides; read-out: KD

Row | Compound | Kd [nM]
8 | αS-dG6P-N3 [αS-dG6P-N3 (Rp-isomer)] | 670

same assay, conditions: in words; compared with the other nucleotides

Row | Compound | binding to the polymerase in the ternary complex
9 | Nc1ccn(C2CC(O)C(COP(=O)(O)CP(=O)(O)OP(=O)(O)O)O2)c(=O)n1 (stereo not drawn) [dCp-CH2-pp, reference compound] | do not bind as tightly

— patent US12467085B2, “High accuracy nanopore-based single molecule sequencing by synthesis with tagged nucleotides” (priority 2019, dated 2025)
